Consider three molecules from patent US10189822B2, “Heterocyclic modulators of lipid synthesis” (3-V Biosciences, Inc., priority 2015, dated 2019).

Bounds are passed on as bounds.

The test system of data set [1] is HCV GT1b replicon cell line. The experiment in a line: Two-compound combination study in HCV GT1b replicon, MacSynergy II. In kind it is cell-based. A general note: Replicon systems follow genome replication, usually without infectious particles.
Description: The DMSO stocks of the compounds used in the single compound testing were also used in this analysis. Combination dilution matrixes were generated by POD-810 in 96-well assay microplates. The POD-810 system was used to generate 7-point, 2-fold serial dilutions in a matrix format.
The plates were incubated for 1 hour, and cell viability was measured on an Envision reader for cytotoxicity calculation. The liquid was then removed from the plates, after which 50 μL PBS and 50 μL firefly luciferase substrate solution were added to each well, after a 2-minute incubation period, chemiluminescence (for HCV replication calculation) was measured. The data were analyzed using MacSynergy™ II.
Data set [2] deals with db/db mice. Conditions: mouse, in vivo; cited from earlier work.
The subject of data set [3] is Db/+ mice fed a high fructose diet. Particulars: treated for 28 days; cited from earlier work.
The subject of data set [4] is HCV GT1b replicon cell line. In kind it is cell-based. Particulars: IFN-α.
Data set [5] deals with HCV GT1b replicon cell line. Particulars: expected value, Table 10; IFN-α; cited from earlier work.
Data set [6] relates to HCV replicon GT1b cells. Kind of data set: Cytotoxicity in HCV replicon GT1b cells, Cell Titer Flo (Example 5). It counts as cell-based. Conditions: 72 hours, IFN-α.

For the molecule `Cc1ccc(C(=O)N2CCC(F)(c3ccc(C#N)cc3)CC2)cc1NC(=O)NC1CCCOC1` (stereo not drawn) [(V-K)], in data set [1] (in combination with IFN-α, RBV, Compounds B, C, D, E), the “Combination antiviral effect (in words)” value is “additive antiviral activity”.
On to `CC12C[C@@]34C=CC(=O)[C@@](C)(CCC(=O)Nc5c(O)ccc(C(=O)O)c5O)C3[C@H](CC1C4)O2` (stereo partly drawn) [platensimycin], for which, in data set [2], the Ambient glucose levels result is recorded as “reduced”. In addition, in data set [3], the Insulin sensitivity result is given as “improved insulin sensitivity” and the Liver triglyceride levels entry is on record as “reduced liver triglyceride levels”.
In the case of IFN-α, in data set [4] (Table 13), the “GT1b EC50 in dose ranging assay” value was found to be 1.34 IU/mL. For the same molecule, the “GT1b EC50” value in data set [4] (single compound, 72 hours) is on record as 1.34 IU/mL. Further, in data set [1] (individual compound in the combination matrix, IFN-α), the “GT1b EC50 of single dose in drug combination” value was determined as 3.43 IU/mL. In data set [5], the “GT1b Expected EC50” value is 1 IU/mL. For the same molecule, in data set [6], the “GT1b CC50” value is on record as more than 1000 IU/mL.
